Calls of active or inactive are those of the source. The rule behind the calls is not given here.
Assays:
[1] = Cytotoxicity against human HCT116 cells after 48 hrs by MTT assay; type: functional, cell-based; details: HCT-116, 48 h
[2] = tested on: A549; test: Cytotoxicity against human A549 cells after 48 hrs by MTT assay; type: functional, cell-based; details: A549, 48 h
[3] = Cytotoxicity against human THP1 cells at 50 uM after 48 hrs by MTT assay; type: functional; details: THP-1, 48 h, read-out: GI
[4] = Cytotoxicity against human FR2 cells at 50 uM after 48 hrs by MTT assay; type: cell-based; details: read-out: GI
[5] = Cytotoxicity against human HCT116 cells at 50 uM after 48 hrs by MTT assay; type: functional; details: HCT-116, 48 h, read-out: GI
[6] = tested on: A549; test: Cytotoxicity against human A549 cells at 50 uM after 48 hrs by MTT assay; type: functional; details: A549, 48 h, read-out: GI
[7] = tested on: MCF7; test: Cytotoxicity against human MCF7 cells at 50 uM after 48 hrs by MTT assay; type: functional; details: MCF7, 48 h, read-out: GI
[8] = tested on: HCT-116; test: Induction of apoptosis in human HCT116 cells assessed as pycnosis at 10 to 20 uM after 24 hrs by acridine orange/ethidium bromide staining-based fluorescence microscopy; type: functional, cell-based
[9] = tested on: MCF7; test: Cytotoxicity against human MCF7 cells after 48 hrs by MTT assay; type: functional, cell-based; details: MCF7, 48 h
[10] = Cytotoxicity against human THP1 cells after 48 hrs by MTT assay; type: functional, cell-based; details: THP-1, 48 h
[11] = Cytotoxicity against human FR2 cells after 48 hrs by MTT assay; type: cell-based; details: FR2, 48 h
[12] = tested on: HCT-116; test: Induction of apoptosis in human HCT116 cells assessed as membrane blebbing at 10 to 20 uM after 24 hrs by acridine orange/ethidium bromide staining-based fluorescence microscopy; type: functional, cell-based
[13] = tested on: HCT-116; test: Induction of apoptosis in human HCT116 cells assessed as cell budding at 10 to 20 uM after 24 hrs by acridine orange/ethidium bromide staining-based fluorescence microscopy; type: functional
[14] = tested on: HCT-116; test: Induction of apoptosis in human HCT116 cells at 20 uM after 24 hrs by Hoechst 33258 staining-based fluorescence microscopy; type: functional, cell-based
[15] = tested on: HCT-116; test: Induction of apoptosis in human HCT116 cells at 20 uM after 24 hrs by JC-1 staining-based fluorescence microscopy; type: functional, cell-based
[16] = tested on: HCT-116; test: Induction of cell cycle arrest in human HCT116 cells assessed as accumulation at G1 phase at 20 uM after 48 hrs by propidium iodide staining-based flow cytometry (reference value: 41.51%); type: functional
[17] = tested on: HCT-116; test: Induction of cell cycle arrest in human HCT116 cells assessed as accumulation at G2 phase at 20 uM after 48 hrs by propidium iodide staining-based flow cytometry (reference value: 32.43%); type: functional
[18] = Upregulation of Bax expression in human HCT116 cells at 20 uM after 24 hrs by Western blotting method; type: functional, cell-based; details: HCT-116
[19] = Downregulation of Bcl2 expression in human HCT116 cells at 20 uM after 24 hrs by Western blotting method; type: functional, cell-based; details: HCT-116
[20] = Induction of apoptosis in human HCT116 cells assessed as upregulation of caspase-9 expression at 20 uM after 24 hrs by Western blotting method; type: functional, cell-based; details: HCT-116
[21] = Induction of apoptosis in human HCT116 cells assessed as upregulation of caspase-3 expression at 20 uM after 24 hrs by Western blotting method; type: functional, cell-based; details: HCT-116

C[C@H]1[C@H](C)CC[C@]2(C(=O)O)CC[C@]3(C)C(=CC[C@@H]4[C@@]5(C)C/C(=C\c6cc(O)ccc6O)C(=O)C(C)(C)[C@@H]5CC[C@]43C)[C@H]12
IC50 [1]: < 100 nM | IC50 [2]: 550 nM | inhibition of growth at 50 µM [3]: 94% | inhibition at 48 h, 50 µM [4]: 91% | inhibition of growth at 50 µM [5]: 99% | inhibition of growth at 50 µM [6]: 93% | inhibition of growth at 50 µM [7]: 100% | Activity [8]: Active | IC50 [9]: 5500 nM | IC50 [10]: 900 nM | IC50 [11]: 800 nM | Activity [12]: Active | Activity [13]: Active | Activity [14]: Active | Activity [15]: Active | Activity [16]: 65.58% | Activity [17]: 11.65% | Activity [18]: Active | Activity [19]: Active | Activity [20]: Active | Activity [21]: Active
